# Assay results taken from US20250361240A1, “PYRANOPYRIDINE COMPOUND, PROCESS FOR PREPARING THE SAME, PHARMACEUTICAL COMPOSITION AND USE THEREOF” (Zhejiang Yangli Pharmaceutical Technology Co., Ltd., priority 2024, published 2025).
# pIC50: −log10 of the molar value.
# How the values were obtained:
# [1] = biological target: human CYP11B2 (Homo sapiens (Human), UniProt P19099); test: Inhibitory activity against hCYP11B2 in G-402 CYP11B2 high expression stable transformants (aldosterone HTRF); type: cell-based; conditions: for pIC50: G-402 CYP11B2 cells, 0.2 μM 11-deoxycorticosterone, 16 hours, read-out: hCYP11B2 (AS) Abs IC50; for hCYP11B ½ Selectivity Fold: hCYP11B1 IC50 relative to hCYP11B2 IC50; for selectivity (in words): hCYP11B2 versus hCYP11B1, compared with reference Baxdrostat
# human CYP11B2, sequence (P19099 25-503): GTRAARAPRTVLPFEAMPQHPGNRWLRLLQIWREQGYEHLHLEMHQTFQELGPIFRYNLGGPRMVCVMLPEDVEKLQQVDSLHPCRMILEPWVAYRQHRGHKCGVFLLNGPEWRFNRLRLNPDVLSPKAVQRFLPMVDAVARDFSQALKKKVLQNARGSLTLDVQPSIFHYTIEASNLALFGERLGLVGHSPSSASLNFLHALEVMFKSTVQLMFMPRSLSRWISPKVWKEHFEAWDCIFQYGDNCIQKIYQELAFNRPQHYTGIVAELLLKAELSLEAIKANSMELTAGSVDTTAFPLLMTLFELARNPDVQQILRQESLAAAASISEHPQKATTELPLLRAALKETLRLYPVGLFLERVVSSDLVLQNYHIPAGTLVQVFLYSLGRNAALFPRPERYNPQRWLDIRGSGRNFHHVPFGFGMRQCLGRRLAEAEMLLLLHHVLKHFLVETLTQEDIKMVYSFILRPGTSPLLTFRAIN
# Description: (§1) 1. Experimental System: G-402 CYP11B2 or CYP11B1 High Expression Stable Transformants
# (§2) The above-mentioned high-expression stable transformants were constructed based on human […] cell line G-402. The artificial lentiviruses were introduced into human CYP11B2 (NM_000498.3) and CYP11B1 (NM_000497.4), respectively.
# (§3) Maintenance medium: McCoy's 5A (modified, #16600082, GIBCO)+10% FBS (GIBCO)+1 μg/mL puromycin (A1113803, GIBCO).
# (§4) Resuscitation and seeding medium: McCoy's 5A (modified, #16600082, GIBCO)+10% FBS (GIBCO).
# (§5) Reaction medium: DMEM/F12 (#11320033, GIBCO)+2.5% activated charcoal filtered FBS (S11695, R & D).
# (§6) Seeding: Cells were cultured to a suitable state after resuscitation with maintenance medium, and 96-well flat plates were seeded with seeding medium according to 1×10^4/100 μL/well (unified cell volume).
# (§7) Changing solution: The supernatant was aspirated and discarded after seeding overnight (>12 hours) and adherence. 100-150 μL/well serum-free medium was added, and after being aspirated. After aspiration, 50 μL/well reaction medium was added for later use.
# (§8) Formulation: Compound was diluted with reaction medium containing 0.4 μM substrate (final experimental concentration is 0.2 μM):
# CYP11B2 substrate: 11-deoxycorticosterone (11-deoxycorticosterone, S4243, selleckchem). The final reaction concentration was 0.2 μM
# (§9) Loading: The above compound dilutions were added to the cell plates at 50 μL/well. The background and control wells were set.
# (§10) Treating and sampling: The cell plates were incubated in a cell incubator for 16 hours after loading, and then each cell plate was centrifuged at 450 g for 2 min. 75 μL supernatant was transferred to a collection plate and frozen at −80° C. for future use (or direct detection).
# (§11) Detection: Homogeneous time-resolved fluorescence kit (Cisbio HTRF kit, Cat.64ALDPEG, Cat.62CRTPEG) was used to determine the concentration of aldosterone or cortisol in the supernatant.
# (§12) Analysis: The absolute IC50 (Abs IC50) for each compound was calculated using a four parameter fit.
# [2] = test system: aldosterone synthesis; test: Pharmacodynamic test in cynomolgus monkeys with ACTH stimulation: aldosterone in plasma; type: in vivo, cynomolgus monkeys (Macaca fascicularis); conditions: 0.05 mg/kg oral
# Excerpt: (§13) Adult cynomolgus monkeys (Macaca fascicularis) with suitable body weight and age were selected. 1 male and 1 female cynomolgus monkeys were used for experiment. The adaptation period was 1 week. On the day of the experiment, monkeys were individually housed in stainless steel mesh cages for testing.
# (§14) Oral treatment and ACTH working solution (working solution diluted to the desired concentration in PBS sterile solution by ultrapure water filtration through a 0.22 μm filter using Tetracosactrin (HY-P0060, MCE)) were administered as follows: • T=0, 2 monkeys in each group were orally administered 0.5 mg/kg (compound was suspended in 5% aqueous sodium hydroxymethylcellulose solution as vehicle) in a fixed volume of 2 mL/kg; • T=+1 hour (i.e., 1 hour after administration), 14.5 μg/kg of the aforementioned ACTH working solution was injected intramuscularly.
# (§15) Sampling test: Blood samples (collected in EDTA anticoagulant tubes) were collected before oral administration (Pre-dose) and 0.5 h, 1 h, 2 h, 4 h, 6 h and 12 h after administration for cortisol concentration measurement in plasma. The blood was centrifuged at 10000 rpm for 15 minutes at 4° C., followed by separation of the plasma and uniform storage at −80° C. for further analysis using an Roche biochemical analyzer to detect aldosterone and cortisol in plasma, and a portion of the plasma (0.5 h, 1 h, 2 h, 4 h, 6 h, and 12 h after administration, and an additional blood collection after 24 h) was taken simultaneously to determine the pharmacokinetic parameters by LC/MS.
# (§16) The above experiment was repeated except that: T=0, two monkeys in each group were orally administered at a dose of 0.05 mg/kg (compound was suspended in 5% aqueous sodium hydroxymethylcellulose as vehicle) in a fixed volume of 2 mL/kg.
# [3] = biological target: human CYP11B1 (Homo sapiens (Human), UniProt P15538); test: Inhibitory activity against hCYP11B1 in G-402 CYP11B1 high expression stable transformants (cortisol HTRF); type: cell-based; conditions: G-402 CYP11B1 cells, 0.2 μM 11-deoxycortisol, 16 hours; read-out: hCYP11B1 Abs IC50
# human CYP11B1, sequence (P15538 25-503): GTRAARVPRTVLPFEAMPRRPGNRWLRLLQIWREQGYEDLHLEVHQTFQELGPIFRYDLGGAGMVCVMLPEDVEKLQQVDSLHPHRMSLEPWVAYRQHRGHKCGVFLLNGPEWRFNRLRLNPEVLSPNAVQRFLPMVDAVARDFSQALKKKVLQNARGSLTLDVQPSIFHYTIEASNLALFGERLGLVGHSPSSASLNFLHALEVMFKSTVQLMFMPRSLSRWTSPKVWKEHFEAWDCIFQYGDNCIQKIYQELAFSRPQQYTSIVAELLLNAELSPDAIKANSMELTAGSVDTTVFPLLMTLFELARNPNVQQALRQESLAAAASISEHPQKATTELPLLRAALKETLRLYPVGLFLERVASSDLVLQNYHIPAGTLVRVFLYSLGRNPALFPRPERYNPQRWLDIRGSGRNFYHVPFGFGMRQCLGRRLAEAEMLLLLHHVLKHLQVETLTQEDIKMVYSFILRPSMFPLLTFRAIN
# Description: as §1, §2, §3, §4, §5, §6, §7, §8
# CYP11B1 substrate: 11-deoxycortisol (11-deoxycortisol, S4775, selleckchem). The final reaction concentration was 0.2 μM.
# as §9, §10, §11, §12
# [4] = Pharmacokinetic test in cynomolgus monkeys (LC/MS); type: in vivo, cynomolgus monkeys (Macaca fascicularis); conditions: for Cmax / Tmax / half-life / AUC(0-t): both sexes, cynomolgus monkey, plasma, 0.05 mg/kg, 0.05mpk oral; for AUC(0-t): read-out: AUC0-24 h
# Excerpt: as §13, §14, §15, §16
# [5] = test system: cortisol levels; test: Pharmacodynamic test in cynomolgus monkeys with ACTH stimulation: cortisol in plasma; type: in vivo, cynomolgus monkeys (Macaca fascicularis); conditions: 0.05 mg/kg oral
# Excerpt: as §13, §14, §15, §16
# [6] = biological target: CYP2C19 (Homo sapiens (Human), UniProt P33261); test: In vitro inhibitory activity against common CYP450 enzymes: CYP2C19; type: in vitro ADME; conditions: microsomes, substrate (S)-(+)-Mephenytoin
# CYP2C19, sequence (P33261 whole entry): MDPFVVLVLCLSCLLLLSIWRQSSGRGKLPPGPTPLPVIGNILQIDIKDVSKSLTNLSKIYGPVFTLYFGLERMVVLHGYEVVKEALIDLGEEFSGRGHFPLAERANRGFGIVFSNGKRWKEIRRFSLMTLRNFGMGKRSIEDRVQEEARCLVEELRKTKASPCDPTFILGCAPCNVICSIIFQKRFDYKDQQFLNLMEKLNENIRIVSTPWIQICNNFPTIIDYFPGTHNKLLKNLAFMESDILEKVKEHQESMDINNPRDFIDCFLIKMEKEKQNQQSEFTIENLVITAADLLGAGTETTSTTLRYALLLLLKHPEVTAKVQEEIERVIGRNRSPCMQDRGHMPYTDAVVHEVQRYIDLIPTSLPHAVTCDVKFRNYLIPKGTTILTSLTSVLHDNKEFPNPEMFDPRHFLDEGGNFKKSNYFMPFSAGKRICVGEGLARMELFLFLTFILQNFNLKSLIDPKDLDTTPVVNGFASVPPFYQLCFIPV
# Description: (§17) A working solution of the test compound was prepared in a solvent of dimethyl sulfoxide (DMSO) (starting at a final concentration of 50 μM, 3-fold dilution of 7 concentration points). The corresponding microsomes (CORNING, Cat No.452117) and the corresponding substrate solution were prepared (components were shown in Table 2). The working solution of the test compound and the corresponding microsomes were mixed with the corresponding substrate solution and the HLM working solution. The mixture was preheated in a 37.0° C. water bath for 10 min. NADPH cofactor (BONTAC, Cat No.BT04) was added. The resultant mixture was incubated for 10 min in a 37.0° C. water bath. The reaction was terminated by adding cold stop solution. [table] [table] The sample was centrifuged at 4000 rpm for 20 min to precipitate protein and the supernatant was transferred to HPLC water and shaken for 10 min.
# [7] = biological target: CYP1A2 (Homo sapiens (Human), UniProt P05177); test: In vitro inhibitory activity against common CYP450 enzymes: CYP1A2; type: in vitro ADME; conditions: human, microsomes, 10 min
# CYP1A2, sequence (P05177 whole entry): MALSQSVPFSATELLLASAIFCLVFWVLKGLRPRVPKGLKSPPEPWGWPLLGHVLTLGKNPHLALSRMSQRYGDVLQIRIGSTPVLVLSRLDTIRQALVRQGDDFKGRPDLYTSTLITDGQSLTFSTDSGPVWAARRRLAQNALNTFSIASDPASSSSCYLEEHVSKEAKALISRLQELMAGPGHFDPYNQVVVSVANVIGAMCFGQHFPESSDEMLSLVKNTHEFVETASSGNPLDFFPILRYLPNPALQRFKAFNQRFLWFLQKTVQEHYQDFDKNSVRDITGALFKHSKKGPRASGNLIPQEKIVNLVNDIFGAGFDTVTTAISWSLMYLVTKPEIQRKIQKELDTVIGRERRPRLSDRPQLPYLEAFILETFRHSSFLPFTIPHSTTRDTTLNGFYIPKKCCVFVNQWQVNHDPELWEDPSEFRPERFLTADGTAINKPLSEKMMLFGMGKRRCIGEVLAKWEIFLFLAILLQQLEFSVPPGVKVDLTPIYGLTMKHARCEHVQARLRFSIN
# Description: as §17
# [8] = biological target: CYP2C9 (Homo sapiens (Human), UniProt P11712); test: In vitro inhibitory activity against common CYP450 enzymes: CYP2C9; type: in vitro ADME; conditions: microsomes, substrate Diclofenac
# CYP2C9, sequence (P11712 whole entry): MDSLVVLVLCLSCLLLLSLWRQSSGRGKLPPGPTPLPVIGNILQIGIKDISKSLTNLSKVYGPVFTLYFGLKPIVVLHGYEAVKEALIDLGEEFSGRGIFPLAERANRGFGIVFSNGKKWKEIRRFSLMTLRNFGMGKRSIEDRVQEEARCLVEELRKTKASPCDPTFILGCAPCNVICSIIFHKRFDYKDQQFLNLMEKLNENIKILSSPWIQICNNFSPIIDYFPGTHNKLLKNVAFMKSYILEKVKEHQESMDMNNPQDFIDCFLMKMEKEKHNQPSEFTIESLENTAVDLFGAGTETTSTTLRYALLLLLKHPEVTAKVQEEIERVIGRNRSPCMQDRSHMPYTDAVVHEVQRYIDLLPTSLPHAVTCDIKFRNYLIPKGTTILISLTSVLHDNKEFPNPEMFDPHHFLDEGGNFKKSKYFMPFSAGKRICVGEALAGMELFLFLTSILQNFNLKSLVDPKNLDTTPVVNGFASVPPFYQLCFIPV
# Description: as §17
# [9] = biological target: CYP3A (Homo sapiens, UniProt P08684); test: In vitro inhibitory activity against common CYP450 enzymes: CYP3A (midazolam); type: in vitro ADME; conditions: human, human liver microsomes, probe Midazolam, substrate Midazolam
# CYP3A, sequence (P08684 2-503 limits assumed): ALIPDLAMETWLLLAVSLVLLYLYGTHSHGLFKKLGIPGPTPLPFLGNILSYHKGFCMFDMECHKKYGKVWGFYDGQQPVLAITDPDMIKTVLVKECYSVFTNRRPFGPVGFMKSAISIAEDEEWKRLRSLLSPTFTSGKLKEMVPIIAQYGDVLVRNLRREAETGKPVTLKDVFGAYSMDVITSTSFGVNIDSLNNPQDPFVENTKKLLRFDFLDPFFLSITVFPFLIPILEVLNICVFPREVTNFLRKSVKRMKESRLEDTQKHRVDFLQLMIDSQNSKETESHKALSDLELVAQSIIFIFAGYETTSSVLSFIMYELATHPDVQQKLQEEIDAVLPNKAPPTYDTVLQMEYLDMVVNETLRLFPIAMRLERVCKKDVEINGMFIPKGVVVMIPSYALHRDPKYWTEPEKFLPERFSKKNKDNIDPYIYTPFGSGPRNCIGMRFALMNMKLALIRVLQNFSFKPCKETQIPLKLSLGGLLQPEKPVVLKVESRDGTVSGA
# Description: as §17
# [10] = biological target: CYP2D6 (Homo sapiens (Human), UniProt P10635); test: In vitro inhibitory activity against common CYP450 enzymes: CYP2D6; type: in vitro ADME; conditions: microsomes, substrate Dextromethorphan
# CYP2D6, sequence (P10635 whole entry): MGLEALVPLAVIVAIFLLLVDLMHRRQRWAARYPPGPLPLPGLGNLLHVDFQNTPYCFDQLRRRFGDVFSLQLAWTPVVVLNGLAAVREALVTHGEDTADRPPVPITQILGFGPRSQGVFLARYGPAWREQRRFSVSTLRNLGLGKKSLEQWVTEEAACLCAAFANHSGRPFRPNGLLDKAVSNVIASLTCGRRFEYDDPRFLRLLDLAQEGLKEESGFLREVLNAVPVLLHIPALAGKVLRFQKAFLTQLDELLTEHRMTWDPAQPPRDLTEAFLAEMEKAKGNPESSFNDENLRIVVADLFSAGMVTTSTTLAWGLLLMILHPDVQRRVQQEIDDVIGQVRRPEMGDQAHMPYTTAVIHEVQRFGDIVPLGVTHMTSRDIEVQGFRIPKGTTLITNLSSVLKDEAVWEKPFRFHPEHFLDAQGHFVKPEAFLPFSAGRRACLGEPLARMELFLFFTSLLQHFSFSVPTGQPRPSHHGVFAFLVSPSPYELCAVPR
# Description: as §17
smiles,measurement,setting,value
"[2H][C@@]1(NC(=O)CC)CCOc2c(-c3ccc4c(c3)CCC(=O)N4C)cncc21 [Example 2, (R)-N-(8-(1-methyl-2-oxo-1,2,3,4-tetrahydroquinolin-6-yl)-3,4-dihydro-2H-pyran[3,2-c]pyridin-4-yl-4-D)propanamide]",pIC50,[1],7.43
same,hCYP11B ½ Selectivity Fold,[1],144.47 Fold
same,selectivity (in words),[1],better selectivity
same,effect on aldosterone synthesis (in words),[2],no potent inhibition of aldosterone synthesis
same,Aldosterone Concentration in Plasma,[2]; 0.5 h,1057.1 pg/mL
same,Aldosterone Concentration in Plasma,[2]; 1 h (ACTH at +1 hour),807.59 pg/mL
same,Aldosterone Concentration in Plasma,[2]; 2 h,337.76 pg/mL
same,Aldosterone Concentration in Plasma,[2]; 4 h,105.97 pg/mL
same,Aldosterone Concentration in Plasma,[2]; 6 h,101.15 pg/mL
same,Aldosterone Concentration in Plasma,[2]; 12 h,112.02 pg/mL
same,Aldosterone Concentration in Plasma,[2]; Pre-dose,432.52 pg/mL
same,pIC50,[3],5.27
same,Cmax,[4],11.9 ng/mL
same,Tmax,[4],2 h
same,half-life,[4],9.7 h
same,AUC(0-t),[4],165 ng·h/mL
same,Cortisol Concentration in Plasma,[5]; 0.5 h,1299.9 pg/mL
same,Cortisol Concentration in Plasma,[5]; 1 h (ACTH at +1 hour),1178.3 pg/mL
same,Cortisol Concentration in Plasma,[5]; 2 h,1809.0 pg/mL
same,Cortisol Concentration in Plasma,[5]; 4 h,872.2 pg/mL
same,Cortisol Concentration in Plasma,[5]; 6 h,451.8 pg/mL
same,Cortisol Concentration in Plasma,[5]; 12 h,710.2 pg/mL
same,Cortisol Concentration in Plasma,[5]; Pre-dose,838.9 pg/mL
"CN(C)C(=O)N[C@@H]1CCOc2c(-c3ccc4c(c3)CCC(=O)N4C)cncc21 [Example 3, (R)-1,1-dimethyl-3-(8-(1-methyl-2-oxo-1,2,3,4-tetrahydroquinolin-6-yl)-3,4-dihydro-2H-pyran[3,2-c]pyridin-4-yl)urea]",pIC50,[1],7.21
same,hCYP11B ½ Selectivity Fold,[1],85.95 Fold
same,pIC50,[3],5.28
"[2H][C@@]1(NC(=O)CC)CCOc2c(-c3cc4c(cc3F)N(C)C(=O)CC4)cncc21 [Example 4, (R)-N-(8-(7-fluoro-1-methyl-2-oxo-1,2,3,4-tetrahydroquinolin-6-yl)-3,4-dihydro-2H-pyran[3,2-c]pyridin-4-yl-4-d)propanamide]",pIC50,[1],7.37
same,hCYP11B ½ Selectivity Fold,[1],112.51 Fold
same,pIC50,[3],5.32
"[2H][C@@]1(NC(=O)N(C)C)CCOc2c(-c3ccc4c(c3)CCC(=O)N4C)cncc21 [Example 5, (R)-1,1-dimethyl-3-(8-(1-methyl-2-oxo-1,2,3,4-tetrahydroquinolin-6-yl)-3,4-dihydro-2H-pyran[3,2-c]pyridin-4-yl-4-d)urea]",pIC50,[1],7.30
same,hCYP11B ½ Selectivity Fold,[1],68.19 Fold
same,pIC50,[3],5.47
"CN(C)C(=O)N[C@@H]1CCOc2c(-c3cc4c(cc3F)N(C)C(=O)CC4)cncc21 [Example 6, (R)-3-(8-(7-fluoro-1-methyl-2-oxo-1,2,3,4-tetrahydroquinolin-6-yl)-3,4-dihydro-2H-pyran[3,2-c]pyridin-4-yl)-1,1-dimethylurea]",pIC50,[1],7.11
same,hCYP11B ½ Selectivity Fold,[1],>129.37 Fold
same,selectivity (in words),[1],better selectivity
same,pIC50,[3],< 5.00
"[2H][C@@]1(NC(=O)N(C)C)CCOc2c(-c3cc4c(cc3F)N(C)C(=O)CC4)cncc21 [Example 7, (R)-3-(8-(7-Fluoro-1-methyl-2-oxo-1,2,3,4-tetrahydroquinolin-6-yl)-3,4-dihydro-2H-pyran[3,2-c]pyridin-4-yl-4-d)-1,1-dimethylurea]",pIC50,[1],6.77
same,hCYP11B ½ Selectivity Fold,[1],>58 Fold
same,pIC50,[3],< 5.00
"CCC(=O)N[C@@H]1CCOc2c(-c3cc4c(cc3F)N(C)C(=O)CC4)cncc21 [Example 8, (R)-N-(8-(7-Fluoro-1-methyl-2-oxo-1,2,3,4-tetrahydroquinolin-6-yl)-3,4-dihydro-2H-pyran[3,2-c]pyridin-4-yl)propanamide]",pIC50,[1],7.64
same,hCYP11B ½ Selectivity Fold,[1],199 Fold
same,selectivity (in words),[1],better selectivity
same,effect on aldosterone synthesis (in words),[2],significantly inhibited aldosterone synthesis
same,Aldosterone Concentration in Plasma,[2]; 0.5 h,557.64 pg/mL
same,Aldosterone Concentration in Plasma,[2]; 1 h (ACTH at +1 hour),350.13 pg/mL
same,Aldosterone Concentration in Plasma,[2]; 2 h,139.86 pg/mL
same,Aldosterone Concentration in Plasma,[2]; 4 h,81.71 pg/mL
same,Aldosterone Concentration in Plasma,[2]; 6 h,84.08 pg/mL
same,Aldosterone Concentration in Plasma,[2]; 12 h,91.38 pg/mL
same,Aldosterone Concentration in Plasma,[2]; Pre-dose,421.96 pg/mL
same,pIC50,[3],5.34
same,pIC50,[6],< 4.30
same,pIC50,[7],< 4.30
same,pIC50,[8],< 4.30
same,Cmax,[4],22.7 ng/mL
same,Tmax,[4],2 h
same,half-life,[4],12.7 h
same,AUC(0-t),[4],332 ng·h/mL
same,Cmax and AUC relative to the reference Baxdrostat,[4]; same dose,three times as high
same,Cmax and AUC values relative to the compound of Example 2,[4]; same dose (0.05mpk),twice as high
same,IC50 at 10 min,[9],> 50 µM
same,pIC50,[10],< 4.30
same,Cortisol Concentration in Plasma,[5]; 0.5 h,1590.4 pg/mL
same,Cortisol Concentration in Plasma,[5]; 1 h (ACTH at +1 hour),1335.6 pg/mL
same,Cortisol Concentration in Plasma,[5]; 2 h,1990.5 pg/mL
same,Cortisol Concentration in Plasma,[5]; 4 h,818.4 pg/mL
same,Cortisol Concentration in Plasma,[5]; 6 h,410.8 pg/mL
same,Cortisol Concentration in Plasma,[5]; 12 h,487.5 pg/mL
same,Cortisol Concentration in Plasma,[5]; Pre-dose,831.6 pg/mL
